Experiments:
Tryptase beta-1 = Tryptase beta-1 (Homo sapiens, UniProt Q15661); assay: Inhibition of human B tryptase; conditions: read-out: Ki app
Trypsin = Trypsin (Homo sapiens, UniProt P07477+P07478+P35030); assay: Inhibition of trypsin; type: protein assay
Homo sapiens = species on record: Homo sapiens; assay: Selectivity for tryptase over trypsin
[1] = Central volume of distribution in rat at 0.5 mg/kg, iv; type: ADME, organism-based; parameters: dose 0.5 mg/kg, route intravenous; conditions: in vivo, read-out: Vc
[2] = Oral bioavailability in rat at 5 mg/kg, po; type: ADME, organism-based; conditions: in vivo
[3] = Cmax in rat at 0.5 mg/kg, iv; type: ADME, organism-based; parameters: dose 0.5 mg/kg, route intravenous; conditions: in vivo
[4] = Terminal half life in rat at 0.5 mg/kg, iv; type: ADME, organism-based; parameters: dose 0.5 mg/kg, route intravenous; conditions: in vivo
[5] = Oral absorption in rat at 5 mg/kg, po; type: ADME, organism-based; parameters: dose 5 mg/kg, route oral; conditions: in vivo
[6] = Mean residence time in rat at 0.5 mg/kg, iv; type: ADME, organism-based; parameters: dose 0.5 mg/kg, route intravenous; conditions: in vivo
[7] = Clearance in rat at 0.5 mg/kg, iv; type: ADME, organism-based; parameters: dose 0.5 mg/kg, route intravenous; conditions: in vivo
[8] = Terminal half life in rat at 5 mg/kg, po; type: ADME, organism-based; parameters: dose 5 mg/kg, route oral; conditions: in vivo
[9] = Steady state volume of distribution in rat at 0.5 mg/kg, iv; type: ADME, organism-based; parameters: dose 0.5 mg/kg, route intravenous; conditions: in vivo, read-out: Vss
[10] = AUC in rat at 0.5 mg/kg, iv; type: ADME, organism-based; parameters: dose 0.5 mg/kg, route intravenous; conditions: plasma
Plasminogen = Plasminogen (Homo sapiens, UniProt P00747); assay: Inhibition of plasmin; conditions: read-out: Ki app
Plasminogen, sequence (P00747 97-580 limits assumed): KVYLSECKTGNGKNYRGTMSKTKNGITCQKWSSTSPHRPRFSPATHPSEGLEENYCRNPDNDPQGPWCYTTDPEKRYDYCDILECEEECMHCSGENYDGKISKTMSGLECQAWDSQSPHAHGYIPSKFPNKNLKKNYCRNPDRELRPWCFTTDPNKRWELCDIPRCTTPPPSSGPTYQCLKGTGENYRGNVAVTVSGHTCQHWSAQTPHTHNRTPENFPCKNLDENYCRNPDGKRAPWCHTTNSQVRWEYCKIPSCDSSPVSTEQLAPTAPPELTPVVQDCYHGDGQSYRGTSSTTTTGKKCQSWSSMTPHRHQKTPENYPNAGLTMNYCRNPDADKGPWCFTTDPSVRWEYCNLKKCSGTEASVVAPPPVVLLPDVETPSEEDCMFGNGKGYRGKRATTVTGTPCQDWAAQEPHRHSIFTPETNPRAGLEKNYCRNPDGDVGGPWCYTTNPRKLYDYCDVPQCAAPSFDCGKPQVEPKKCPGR
Plasminogen, sequence (P00747 581-810 limits assumed): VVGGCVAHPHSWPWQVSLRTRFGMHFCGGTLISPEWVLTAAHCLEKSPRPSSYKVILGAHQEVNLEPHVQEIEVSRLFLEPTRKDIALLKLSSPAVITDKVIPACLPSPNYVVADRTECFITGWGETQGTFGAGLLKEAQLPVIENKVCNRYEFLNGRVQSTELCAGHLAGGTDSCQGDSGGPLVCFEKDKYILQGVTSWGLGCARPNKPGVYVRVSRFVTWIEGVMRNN

[11] = target: Urokinase-type plasminogen activator (Homo sapiens, UniProt P00749); assay: Inhibition of urokinase; conditions: read-out: Ki app
Granzyme K = target: T1, Granzyme K (Homo sapiens, UniProt P49863); assay: Inhibition of granzyme K; conditions: read-out: Ki app
T1 sequence (P49863 whole entry): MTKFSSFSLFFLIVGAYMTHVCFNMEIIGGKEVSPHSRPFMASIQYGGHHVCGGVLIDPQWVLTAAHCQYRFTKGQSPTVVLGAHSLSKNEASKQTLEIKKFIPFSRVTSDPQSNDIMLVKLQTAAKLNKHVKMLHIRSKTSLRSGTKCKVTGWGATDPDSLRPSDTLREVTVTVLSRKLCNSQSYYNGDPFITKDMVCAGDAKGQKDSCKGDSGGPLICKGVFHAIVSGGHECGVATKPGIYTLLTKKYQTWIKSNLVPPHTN

Prothrombin = Prothrombin (Homo sapiens, UniProt P00734); assay: Inhibition of thrombin; conditions: read-out: Ki app
Chymotrypsinogen B = Chymotrypsinogen B (Homo sapiens, UniProt P17538); assay: Inhibition of chymotrypsin; conditions: read-out: Ki app
Chymotrypsinogen B, sequence (P17538 34-164 limits assumed, other chains not shown): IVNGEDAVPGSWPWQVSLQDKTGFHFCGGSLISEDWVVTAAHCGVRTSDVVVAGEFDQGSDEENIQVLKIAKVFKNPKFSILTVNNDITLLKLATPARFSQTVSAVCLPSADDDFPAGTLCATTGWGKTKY
Chymotrypsinogen B, sequence (P17538 167-263 limits assumed, other chains not shown): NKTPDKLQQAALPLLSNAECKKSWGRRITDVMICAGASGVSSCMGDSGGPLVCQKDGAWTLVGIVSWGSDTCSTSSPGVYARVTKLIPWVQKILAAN

Plasma kallikrein = Plasma kallikrein (Homo sapiens, UniProt P03952); assay: Inhibition of kallikrein; conditions: read-out: Ki app
Plasma kallikrein, sequence (P03952 20-390 limits assumed): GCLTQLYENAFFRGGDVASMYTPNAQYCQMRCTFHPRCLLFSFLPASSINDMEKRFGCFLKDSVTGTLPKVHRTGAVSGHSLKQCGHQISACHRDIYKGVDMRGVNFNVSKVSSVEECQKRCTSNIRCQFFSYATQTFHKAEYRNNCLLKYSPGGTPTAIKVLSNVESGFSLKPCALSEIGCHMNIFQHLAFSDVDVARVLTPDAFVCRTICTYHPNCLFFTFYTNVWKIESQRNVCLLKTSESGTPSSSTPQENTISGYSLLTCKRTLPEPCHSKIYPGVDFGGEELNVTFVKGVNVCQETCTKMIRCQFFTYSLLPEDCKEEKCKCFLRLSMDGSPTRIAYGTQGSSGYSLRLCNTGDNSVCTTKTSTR
Plasma kallikrein, sequence (P03952 391-638 limits assumed): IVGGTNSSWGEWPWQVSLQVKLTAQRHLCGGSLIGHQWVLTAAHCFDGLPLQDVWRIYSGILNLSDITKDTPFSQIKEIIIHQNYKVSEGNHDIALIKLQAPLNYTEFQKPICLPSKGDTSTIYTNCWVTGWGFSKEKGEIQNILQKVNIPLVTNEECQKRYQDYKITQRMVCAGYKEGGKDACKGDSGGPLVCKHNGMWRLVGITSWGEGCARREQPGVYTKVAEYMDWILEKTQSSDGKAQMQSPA

Chymase = target: T2, Chymase (Homo sapiens, UniProt P23946); assay: Inhibition of chymase; conditions: read-out: Ki app
T2 sequence (P23946 whole entry): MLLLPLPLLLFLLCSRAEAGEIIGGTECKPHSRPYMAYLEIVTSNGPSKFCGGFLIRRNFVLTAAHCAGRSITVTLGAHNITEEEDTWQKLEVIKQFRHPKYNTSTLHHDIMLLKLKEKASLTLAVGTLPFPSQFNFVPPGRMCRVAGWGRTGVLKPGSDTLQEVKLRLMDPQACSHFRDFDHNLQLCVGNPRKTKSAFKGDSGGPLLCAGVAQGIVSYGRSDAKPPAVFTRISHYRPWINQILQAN

[12] = Inhibition of elastase; parameters: species or system Homo sapiens; conditions: read-out: Ki app
[13] = target: Vitamin K-dependent protein C (Homo sapiens, UniProt P04070); assay: Inhibition of APC; conditions: read-out: Ki app
Vitamin K-dependent protein C, sequence (P04070 43-197 limits assumed): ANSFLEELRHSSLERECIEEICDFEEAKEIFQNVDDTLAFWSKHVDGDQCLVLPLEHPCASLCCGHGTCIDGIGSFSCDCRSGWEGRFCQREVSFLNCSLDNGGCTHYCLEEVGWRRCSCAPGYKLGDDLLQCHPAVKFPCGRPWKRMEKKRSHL
Vitamin K-dependent protein C, sequence (P04070 212-461 limits assumed): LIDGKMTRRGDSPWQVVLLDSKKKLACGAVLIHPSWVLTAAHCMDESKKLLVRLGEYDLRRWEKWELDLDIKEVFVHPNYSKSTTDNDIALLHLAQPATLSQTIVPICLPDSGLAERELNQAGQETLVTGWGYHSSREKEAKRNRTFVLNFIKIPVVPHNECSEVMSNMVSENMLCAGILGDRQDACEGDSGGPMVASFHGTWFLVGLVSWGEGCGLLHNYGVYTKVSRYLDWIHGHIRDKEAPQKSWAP

Coagulation factor IX = Coagulation factor IX (Homo sapiens, UniProt P00740); assay: Inhibition of factor 9a; conditions: read-out: Ki app
Coagulation factor IX, sequence (P00740 47-191 limits assumed): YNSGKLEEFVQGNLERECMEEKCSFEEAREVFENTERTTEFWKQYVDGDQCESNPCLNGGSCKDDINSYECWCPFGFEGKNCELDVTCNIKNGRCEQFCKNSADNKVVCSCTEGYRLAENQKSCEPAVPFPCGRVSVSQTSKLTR
Coagulation factor IX, sequence (P00740 227-461 limits assumed): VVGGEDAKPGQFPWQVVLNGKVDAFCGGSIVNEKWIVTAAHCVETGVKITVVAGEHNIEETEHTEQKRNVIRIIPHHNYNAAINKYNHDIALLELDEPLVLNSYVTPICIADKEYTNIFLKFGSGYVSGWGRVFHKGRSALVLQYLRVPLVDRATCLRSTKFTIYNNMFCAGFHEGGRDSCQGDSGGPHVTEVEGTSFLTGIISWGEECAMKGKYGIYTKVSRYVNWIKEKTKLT

Cathepsin G = target: T3, Cathepsin G (Homo sapiens, UniProt P08311); assay: Inhibition of cathepsin G; conditions: read-out: Ki app
T3 sequence (P08311 whole entry): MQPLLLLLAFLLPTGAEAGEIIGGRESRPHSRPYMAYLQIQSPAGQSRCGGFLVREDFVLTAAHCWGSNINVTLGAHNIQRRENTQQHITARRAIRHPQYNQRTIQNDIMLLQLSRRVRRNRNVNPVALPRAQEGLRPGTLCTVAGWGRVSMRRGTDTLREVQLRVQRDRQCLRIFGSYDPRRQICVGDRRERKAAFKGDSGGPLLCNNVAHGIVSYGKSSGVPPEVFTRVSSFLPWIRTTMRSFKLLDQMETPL

Coagulation factor X = Coagulation factor X (Homo sapiens, UniProt P00742); assay: Inhibition of factor 10a; conditions: read-out: Ki app
Coagulation factor X, sequence (P00742 41-179 limits assumed): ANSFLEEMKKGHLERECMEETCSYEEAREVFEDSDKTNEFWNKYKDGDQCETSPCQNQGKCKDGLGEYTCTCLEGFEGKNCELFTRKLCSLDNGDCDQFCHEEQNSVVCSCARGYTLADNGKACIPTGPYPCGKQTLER
Coagulation factor X, sequence (P00742 235-488 limits assumed): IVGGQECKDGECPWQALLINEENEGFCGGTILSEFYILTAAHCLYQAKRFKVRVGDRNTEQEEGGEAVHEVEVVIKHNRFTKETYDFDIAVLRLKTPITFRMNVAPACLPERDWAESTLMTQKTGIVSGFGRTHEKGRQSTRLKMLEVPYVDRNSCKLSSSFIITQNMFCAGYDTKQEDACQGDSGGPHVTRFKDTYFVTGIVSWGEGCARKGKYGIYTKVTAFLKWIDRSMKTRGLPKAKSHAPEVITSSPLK

Coagulation factor VII = target: T4, Coagulation factor VII (Homo sapiens, UniProt P08709); assay: Inhibition of factor 7a; conditions: read-out: Ki app
T4 sequence (P08709 whole entry): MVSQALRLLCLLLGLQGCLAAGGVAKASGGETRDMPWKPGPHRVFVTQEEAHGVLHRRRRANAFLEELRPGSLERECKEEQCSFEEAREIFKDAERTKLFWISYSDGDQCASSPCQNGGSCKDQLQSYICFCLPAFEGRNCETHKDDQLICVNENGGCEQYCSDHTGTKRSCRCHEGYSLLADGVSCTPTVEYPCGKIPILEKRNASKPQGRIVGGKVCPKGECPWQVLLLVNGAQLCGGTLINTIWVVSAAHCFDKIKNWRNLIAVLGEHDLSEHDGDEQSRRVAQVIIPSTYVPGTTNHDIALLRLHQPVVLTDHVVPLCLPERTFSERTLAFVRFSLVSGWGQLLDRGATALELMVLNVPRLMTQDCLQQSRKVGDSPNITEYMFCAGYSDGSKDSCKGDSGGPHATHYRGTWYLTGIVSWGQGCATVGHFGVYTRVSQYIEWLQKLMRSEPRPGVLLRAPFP

Coagulation factor XI = Coagulation factor XI (Homo sapiens, UniProt P03951); assay: Inhibition of factor 11a; conditions: read-out: Ki app
Coagulation factor XI, sequence (P03951 19-387 limits assumed): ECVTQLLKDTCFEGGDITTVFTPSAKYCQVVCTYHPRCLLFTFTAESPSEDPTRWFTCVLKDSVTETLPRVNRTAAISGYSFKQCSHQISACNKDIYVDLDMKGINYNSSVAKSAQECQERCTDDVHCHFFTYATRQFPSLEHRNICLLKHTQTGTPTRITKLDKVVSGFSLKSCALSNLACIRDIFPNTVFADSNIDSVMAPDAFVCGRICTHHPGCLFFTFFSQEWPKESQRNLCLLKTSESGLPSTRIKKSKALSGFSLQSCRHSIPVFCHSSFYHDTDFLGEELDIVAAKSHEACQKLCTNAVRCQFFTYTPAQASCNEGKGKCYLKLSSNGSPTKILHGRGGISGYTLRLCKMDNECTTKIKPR
Coagulation factor XI, sequence (P03951 388-625 limits assumed): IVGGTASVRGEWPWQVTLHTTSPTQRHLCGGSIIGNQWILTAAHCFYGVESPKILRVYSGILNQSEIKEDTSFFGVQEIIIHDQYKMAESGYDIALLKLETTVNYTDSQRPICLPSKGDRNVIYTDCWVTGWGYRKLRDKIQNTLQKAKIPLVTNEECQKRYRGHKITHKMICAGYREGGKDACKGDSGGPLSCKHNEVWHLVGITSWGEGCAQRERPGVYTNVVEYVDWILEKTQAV

Tryptase beta-1, sequence (Q15661 whole entry): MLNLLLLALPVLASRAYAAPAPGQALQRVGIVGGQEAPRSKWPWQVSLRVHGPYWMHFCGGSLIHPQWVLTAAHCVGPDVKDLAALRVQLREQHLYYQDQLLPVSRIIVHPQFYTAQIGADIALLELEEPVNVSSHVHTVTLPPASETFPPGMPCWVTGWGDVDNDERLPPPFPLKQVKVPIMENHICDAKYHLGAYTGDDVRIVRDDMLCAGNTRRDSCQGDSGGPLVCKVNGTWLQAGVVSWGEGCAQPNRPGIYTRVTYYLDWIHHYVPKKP

SMILES | Ki (Tryptase beta-1) | Ki app (Trypsin) | Selectivity ratio (Homo sapiens) | further results
Cl.NCCCC[C@H](NC(=O)N1CCOCC1)C(=O)c1noc(Cc2ccc(OCCc3ccc(Cl)c(Cl)c3)cc2)n1 | 0.0057 µM | 0.87 µM | 153 | 
Cl.NCCCC[C@H](NC(=O)c1ccco1)C(=O)c1noc(Cc2ccc(OCCc3ccc(Cl)c(Cl)c3)cc2)n1 | 0.0023 µM | 0.48 µM | 209 | 
Cl.NCCCC[C@H](NC(=O)c1cccc(F)c1)C(=O)c1noc(Cc2ccc(OCCc3ccc(Cl)c(Cl)c3)cc2)n1 | 0.0058 µM | 1.7 µM | 293 | 
Cl.NCCCC[C@H](NC(=O)N1CCCCC1)C(=O)c1noc(Cc2ccc(OCCc3ccc(Cl)c(Cl)c3)cc2)n1 | 0.0092 µM | 1.4 µM | 152 | 
Cl.NCCCC[C@H](NC(=O)c1ccc(F)cc1)C(=O)c1noc(Cc2ccc(OCCc3ccc(Cl)c(Cl)c3)cc2)n1 |  | 1.1 µM |  | Vd [1]: 0.457 L/kg; bioavailability [2]: 9%; Cmax [3]: 1010 nM; half-life [4]: 2.9 h; Fa [5]: 12%; MRT [6]: 2.88 h; clearance [7]: 45 mL/min/kg; half-life [8]: 2.25 h; Vd [9]: 7.8 L/kg; AUC [10]: 0.3 µM·h
Cl.NCCCC[C@H](NC(=O)C1CCOC1)C(=O)c1noc(Cc2ccc(OCCc3ccc(Cl)c(Cl)c3)cc2)n1 (stereo partly drawn) | 0.022 µM | 1.1 µM | 50 | 
Cl.NCCCC[C@H](NC(=O)C1CCCC1)C(=O)c1noc(Cc2ccc(OCCc3ccc(Cl)c(Cl)c3)cc2)n1 | 0.0065 µM | 0.3 µM | 46 | 
CCOC(=O)N[C@@H](CCCCN)C(=O)c1noc(Cc2ccc(OCCc3ccccc3)cc2)n1 | 0.0054 µM | 0.19 µM |  | Ki (Plasminogen): 0.43 µM; Ki [11]: > 150 µM; Ki (Granzyme K): > 150 µM; Ki (Prothrombin): 64 µM; Ki (Chymotrypsinogen B): > 150 µM; Ki (Plasma kallikrein): 43 µM; Ki (Chymase): > 150 µM; Ki [12]: > 150 µM; Ki [13]: > 150 µM
Cl.NCCCC[C@H](NC(=O)c1ccc(F)c(F)c1)C(=O)c1noc(Cc2ccc(OCCc3ccc(Cl)c(Cl)c3)cc2)n1 |  | 3.3 µM |  | Ki (Coagulation factor IX): > 150 µM; Ki (Cathepsin G): > 150 µM; Ki (Plasminogen): 0.91 µM; Ki (Coagulation factor X): > 150 µM; Ki [11]: > 150 µM; Ki (Coagulation factor VII): > 150 µM; Ki (Granzyme K): > 150 µM; Ki (Prothrombin): > 150 µM; Ki (Chymotrypsinogen B): > 150 µM; Ki (Plasma kallikrein): 83 µM; Ki (Chymase): > 150 µM; Ki (Coagulation factor XI): > 150 µM; Ki [12]: > 150 µM; Ki [13]: > 150 µM
Cl.NCCCC[C@H](NC(=O)c1ccc(Cl)cc1)C(=O)c1noc(Cc2ccc(OCCc3ccc(Cl)c(Cl)c3)cc2)n1 | 0.00655 µM | 2.55 µM | 389 | 
Cl.NCCCC[C@H](NC(=O)c1ccccc1F)C(=O)c1noc(Cc2ccc(OCCc3ccc(Cl)c(Cl)c3)cc2)n1 | 0.0062 µM | 1.1 µM | 177 | 
Cl.NCCCC[C@H](NC(=O)c1ccc(F)cc1F)C(=O)c1noc(Cc2ccc(OCCc3ccc(Cl)c(Cl)c3)cc2)n1 | 0.00325 µM | 1.15 µM | 354 | 

Further lines, with some results ahead:

Ki (Tryptase beta-1) | Ki app (Trypsin) | Selectivity ratio (Homo sapiens) | SMILES | further results
0.00375 µM | 0.625 µM | 167 | CC(C)(C)C(=O)N[C@@H](CCCCN)C(=O)c1noc(Cc2ccc(OCCc3ccc(Cl)c(Cl)c3)cc2)n1.Cl | 
0.0046 µM |  | 10 | NCCCC[C@H](NC(=O)C1CC1)C(=O)c1noc(Cc2ccc(OCCc3ccc(Cl)c(Cl)c3)cc2)n1 | 
0.005 µM | 0.415 µM | 83 | CC(C)OC(=O)N[C@@H](CCCCN)C(=O)c1noc(Cc2ccc(OCCc3ccc(Cl)c(Cl)c3)cc2)n1.Cl | 
0.018 µM | 2.4 µM | 133 | CCN(CC)C(=O)N[C@@H](CCCCN)C(=O)c1noc(Cc2ccc(OCCc3ccc(Cl)c(Cl)c3)cc2)n1.Cl | 
0.0098 µM | 0.18 µM | 18 | CCCCCC(=O)N[C@@H](CCCCN)C(=O)c1noc(Cc2ccc(OCCc3ccc(Cl)c(Cl)c3)cc2)n1.Cl | 
0.0068 µM | 0.12 µM | 18 | CC(C)C(=O)N[C@@H](CCCCN)C(=O)c1noc(Cc2ccc(OCCc3ccc(Cl)c(Cl)c3)cc2)n1.Cl | 
0.032 µM | 3.8 µM | 119 | Cl.NCCCC[C@H](NC(=O)N1CCCC1)C(=O)c1noc(Cc2ccc(OCCc3ccc(Cl)c(Cl)c3)cc2)n1 | 
0.017 µM | 2.2 µM | 129 | COC(=O)N[C@@H](CCCCN)C(=O)c1noc(Cc2ccc(OCCc3ccc(Cl)c(Cl)c3)cc2)n1.Cl | 
0.011 µM | 1.9 µM | 173 | CC(C)(C)COC(=O)N[C@@H](CCCCN)C(=O)c1noc(Cc2ccc(OCCc3ccc(Cl)c(Cl)c3)cc2)n1.Cl | 
0.0047 µM | 0.38 µM | 81 | CCOC(=O)N[C@@H](CCCCN)C(=O)c1noc(Cc2ccc(OCCc3ccc(Cl)c(Cl)c3)cc2)n1.Cl | 
0.0029 µM | 0.22 µM | 76 | Cl.NCCCC[C@H](NC(=O)C(F)(F)F)C(=O)c1noc(Cc2ccc(OCCc3ccc(Cl)c(Cl)c3)cc2)n1 | 
0.005 µM | 0.5 µM | 100 | COCCOC(=O)N[C@@H](CCCCN)C(=O)c1noc(Cc2ccc(OCCc3ccc(Cl)c(Cl)c3)cc2)n1.Cl | 
0.0096 µM | 0.85 µM | 89 | CN(C)C(=O)N[C@@H](CCCCN)C(=O)c1noc(Cc2ccc(OCCc3ccc(Cl)c(Cl)c3)cc2)n1.Cl | 
0.046 µM | 3.9 µM | 85 | Cc1cc(C(=O)N[C@@H](CCCCN)C(=O)c2noc(Cc3ccc(OCCc4ccc(Cl)c(Cl)c4)cc3)n2)c(C)o1.Cl | 
0.0037 µM | 0.19 µM | 51 | COCC(=O)N[C@@H](CCCCN)C(=O)c1noc(Cc2ccc(OCCc3ccc(Cl)c(Cl)c3)cc2)n1.Cl | 

From ChEMBL document CHEMBL1138088, “Design and synthesis of selective keto-1,2,4-oxadiazole-based tryptase inhibitors” (Bioorg Med Chem Lett, 2006)
